We go through eleven compounds from ChEMBL document CHEMBL1201862, “PubChem BioAssay data set” (2004).

Molecules are shown by their SMILES.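 Following 48 hours of exposure in 96-well plates, responses at five concentrations were used to interpolate endpoints linearly. GI50 = concentration required for 50% inhibition of growth.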 Active and inactive are the calls of the source. Rule as the data show it: active = GI50 up to about 1.1 µM and inactive = higher.

Among the test systems are CCRF-CEM; DU-145; HCC 2998; HCT-15; K562; M14; MDA-MB-231; MOLT-4; NCI-H226; NCI-H23; OVCAR-3; OVCAR-5; OVCAR-8; RPMI-8226; SF-539; SK-MEL-28; SK-OV-3; SW-620; T47D; HOP-92.
Holding throughout (test): growth of human tumour cells (NCI), 48 h

On to `COc1ccc(/C=C2\N=C(SC)NC2=O)cc1`, for which the GI50 with CCRF-CEM is 81.8 µM (inactive); with DU-145, 53.8 µM (inactive); in the test on HCC 2998, > 100 µM (inactive); in the test with HCT-15 it was 89.7 µM; in the test on K562 it was > 10 µM (inactive); in the test on M14, > 100 µM (inactive). Further, the GI50 is 59.6 µM (inactive) in the test with MDA-MB-231; 46.5 µM (inactive) with MOLT-4; > 100 µM (inactive) in the test on NCI-H226; 67 µM (inactive) with NCI-H23; > 100 µM (inactive) with OVCAR-3; > 100 µM (inactive) with OVCAR-5. Also, the GI50 in the test with OVCAR-8 is > 100 µM (inactive); in the test with RPMI-8226, 61.8 µM (inactive); with SF-539 it was 80.7 µM (inactive); in the test on SK-MEL-28 it was > 100 µM (inactive); with SK-OV-3, > 100 µM (inactive); with SW-620, > 100 µM (inactive). In addition, the GI50 with T47D was 27.8 µM (inactive).
Take `O=C1c2cc([N+](=O)[O-])ccc2-c2ccc3c4ccc5c6c(ccc(c7ccc1c2c73)c64)C(=O)c1cc([N+](=O)[O-])ccc1-5`: the GI50 is > 100 µM (inactive) in the test on CCRF-CEM; > 100 µM (inactive) with DU-145; > 100 µM in the test with HCT-15; > 100 µM (inactive) in the test with HOP-92; > 100 µM (inactive) in the test with K562; > 100 µM (inactive) in the test on M14. Also, the GI50 in the test with MDA-MB-231, in the test with MOLT-4, with NCI-H226, in the test on NCI-H23, in the test on OVCAR-3 and in the test on OVCAR-5 was > 100 µM (inactive) throughout. In addition, the GI50 in the test with OVCAR-8, with RPMI-8226, in the test with SK-MEL-28, with SK-OV-3, in the test on SW-620 and in the test on T47D was > 100 µM (inactive) throughout.
`NC(=O)c1csc(-c2ccc(CO)o2)n1`: the GI50 in the test with DU-145 is > 100 µM (inactive); with HCT-15, > 100 µM; with HOP-92, > 100 µM (inactive); in the test on K562 it was > 100 µM (inactive); in the test with M14, > 100 µM (inactive); with MDA-MB-231, > 100 µM (inactive). Further, the GI50 in the test with MOLT-4, in the test on NCI-H226, in the test with NCI-H23, in the test with OVCAR-3, with OVCAR-5 and in the test with OVCAR-8 was > 100 µM (inactive) throughout. Further, the GI50 in the test on RPMI-8226, in the test on SF-539, with SK-MEL-28, in the test on SK-OV-3, in the test with SW-620 and with T47D was > 100 µM (inactive) in each case.
With `Cc1cc([N+](=O)[O-])c(C)c(Br)c1C`, the GI50 in the test with DU-145 is > 100 µM (inactive); with HCT-15 it was > 100 µM; with HOP-92, 62.2 µM (inactive); in the test on K562 it was > 100 µM (inactive); in the test with M14, > 100 µM (inactive); in the test with MDA-MB-231, > 100 µM (inactive). The GI50 in the test with NCI-H226, with NCI-H23, in the test with OVCAR-3, with OVCAR-5, with OVCAR-8 and in the test on RPMI-8226 was > 100 µM (inactive) each time. Also, the GI50 is > 100 µM (inactive) with SF-539; > 100 µM (inactive) with SK-MEL-28; > 100 µM (inactive) in the test with SK-OV-3; > 100 µM (inactive) with SW-620; 71 µM (inactive) in the test on T47D.
In the case of `COc1cc(C2SCC(=O)N2c2ccc(Oc3ccc(Cl)cc3)c(Cl)c2)cc(OC)c1OC` (stereo not drawn), the GI50 in the test with DU-145 is 13.3 µM (inactive); in the test with HCC 2998 it was 40 µM (inactive); in the test on HCT-15, 26.2 µM; in the test with K562, 33.4 µM (inactive); in the test with M14 it was 29.9 µM (inactive); with MDA-MB-231 it was 18.7 µM (inactive). For the same compound, the GI50 with MOLT-4 was 8.04 µM (inactive); in the test with NCI-H226 it was 15.8 µM (inactive); in the test on NCI-H23, 32.8 µM (inactive); in the test on OVCAR-3, 17.1 µM (inactive); in the test with OVCAR-5, 23.2 µM (inactive); in the test on OVCAR-8, 17 µM (inactive). The GI50 was 29.4 µM (inactive) in the test on RPMI-8226; 22.8 µM (inactive) in the test on SF-539; 16.6 µM (inactive) in the test on SK-MEL-28; 17.1 µM (inactive) with SK-OV-3; 21 µM (inactive) in the test with SW-620; 10.3 µM (inactive) in the test with T47D.
For the compound `Cc1ccc(N2CCN(CCC(=O)O)CC2)cc1`, the GI50 with CCRF-CEM is 52.7 µM (inactive); with DU-145, > 100 µM (inactive); in the test with HCT-15, > 100 µM; in the test with HOP-92, > 100 µM (inactive); in the test with K562, 2.94 µM (inactive); in the test on M14, > 100 µM (inactive). Also, the GI50 in the test with MDA-MB-231, in the test with NCI-H226, in the test with NCI-H23, in the test on OVCAR-3, in the test with OVCAR-5 and in the test with OVCAR-8 was > 100 µM (inactive) in each case. For the same compound, the GI50 in the test with RPMI-8226, with SF-539, with SK-MEL-28, with SK-OV-3, in the test with SW-620 and in the test on T47D was > 100 µM (inactive) in each case.
`CC(=O)c1c2c(cc3c1CC1(C3)Cc3cc4c(c(C(=O)O)c3C1)CCCC4)CCCC2.CC(N)c1ccccc1` (stereo not drawn): the GI50 in the test with CCRF-CEM is 31.7 µM (inactive); in the test on DU-145 it was 49 µM (inactive); in the test on HCC 2998, 34.5 µM (inactive); with HCT-15, 33.7 µM; in the test on HOP-92 it was 15.4 µM (inactive); in the test with K562, 36.4 µM (inactive). Further, the GI50 in the test with M14 was 28.8 µM (inactive); with MDA-MB-231 it was 10 µM (inactive); with MOLT-4, 17.6 µM (inactive); in the test with NCI-H23, 42 µM (inactive); in the test on OVCAR-3, 23.6 µM (inactive); in the test on OVCAR-5, 28.5 µM (inactive). Besides, the GI50 in the test on OVCAR-8 is 28.2 µM (inactive); in the test on RPMI-8226, 31.6 µM (inactive); with SK-MEL-28 it was 33.4 µM (inactive); with SK-OV-3, 39.5 µM (inactive); in the test on SW-620, 45.4 µM (inactive); in the test on T47D it was 36.6 µM (inactive).
With `CC(=O)O[C@H]1CCC2[C@@H]3CCC4Cc5nc6c(nc5C[C@]4(C)C3CC[C@@]21C)CC1CC[C@@H]2C(CC[C@@]3(C)C2CC[C@@H]3C(C)CCCC(C)C)[C@@]1(C)C6` (stereo partly drawn), the GI50 is > 100 µM (inactive) in the test on CCRF-CEM; > 100 µM (inactive) with DU-145; > 100 µM in the test on HCT-15; > 100 µM (inactive) in the test with HOP-92; > 100 µM (inactive) in the test on K562; > 100 µM (inactive) in the test on M14. Also, the GI50 with MDA-MB-231, in the test on MOLT-4, in the test on NCI-H226, in the test with NCI-H23, in the test with OVCAR-3 and in the test on OVCAR-5 was > 100 µM (inactive) throughout. Also, the GI50 with OVCAR-8, in the test on RPMI-8226, in the test on SF-539, in the test on SK-MEL-28, in the test with SK-OV-3 and in the test on SW-620 was > 100 µM (inactive) throughout. The GI50 in the test on T47D is > 100 µM (inactive).
For the compound `O=c1c(-c2ccccc2Cl)coc2cc(F)ccc12`, the GI50 in the test on CCRF-CEM was 24.3 µM (inactive); with DU-145 it was 27 µM (inactive); in the test with HCT-15 it was 31.8 µM; in the test on HOP-92 it was 18.6 µM (inactive); in the test with M14, 14.3 µM (inactive); in the test with MDA-MB-231 it was 19.4 µM (inactive). Further, the GI50 in the test with MOLT-4 is 22 µM (inactive); in the test with NCI-H226, 23.4 µM (inactive); with NCI-H23, 37.3 µM (inactive); with OVCAR-3 it was 30.7 µM (inactive); with OVCAR-5, 27.1 µM (inactive); in the test on OVCAR-8, 33.7 µM (inactive). The GI50 with SF-539 was 11.9 µM (inactive); in the test with SK-MEL-28 it was 63.5 µM (inactive); with SK-OV-3, 45.2 µM (inactive); in the test on SW-620, 30.6 µM (inactive); with T47D, 45.1 µM (inactive).
As for `CCC(C)(C)C1CCC2c3c([nH]c4ccccc34)C3C(=O)N(c4ccc(OC)cc4)C(=O)C3C2C1` (stereo not drawn), the GI50 is 5.4 µM (inactive) in the test with DU-145; 5.77 µM (inactive) in the test on HCC 2998; 27.5 µM in the test with HCT-15; 5.16 µM (inactive) with K562; 18.8 µM (inactive) in the test on M14; 13 µM (inactive) with MDA-MB-231. In addition, the GI50 in the test on MOLT-4 is 3.62 µM (inactive); in the test with NCI-H226 it was 16.5 µM (inactive); in the test on NCI-H23, 10.5 µM (inactive); in the test on OVCAR-3 it was 2.19 µM (inactive); in the test with OVCAR-5, 15.3 µM (inactive); in the test on OVCAR-8, 12.9 µM (inactive). In addition, the GI50 in the test with SF-539 is 12.4 µM (inactive); in the test on SK-MEL-28, 25.9 µM (inactive); in the test on SK-OV-3, 31.9 µM (inactive); with SW-620 it was 17.4 µM (inactive); in the test on T47D, 6.55 µM (inactive).
For `CC/C=C/C(/C=C/C[C@]1(CC)C[C@H](CC)[C@H](CC(=O)O)OO1)CC` (stereo partly drawn), the GI50 was 0.492 µM (active) in the test on CCRF-CEM; 1.85 µM (inactive) in the test with DU-145; 2.61 µM with HCT-15; 1.99 µM (inactive) with HOP-92; 3.04 µM (inactive) in the test on K562; 8.49 µM (inactive) with M14. The GI50 with MDA-MB-231 is 4.88 µM (inactive); in the test with MOLT-4 it was 2.31 µM (inactive); with NCI-H226, 20.8 µM (inactive); in the test with NCI-H23, 2.24 µM (inactive); in the test on OVCAR-3, 2 µM (inactive); with OVCAR-5 it was 2.34 µM (inactive). Also, the GI50 was 2.9 µM (inactive) with OVCAR-8; 1.64 µM (inactive) with RPMI-8226; 1.82 µM (inactive) in the test with SF-539; 2.23 µM (inactive) with SK-MEL-28; 4.23 µM (inactive) with SK-OV-3; 2.12 µM (inactive) with SW-620. Also, in the test with T47D, the GI50 is 2.75 µM (inactive).
